Test results: ChEMBL document CHEMBL1201862, “PubChem BioAssay data set” (2004)
Calls of active or inactive are those of the source.

How the values were obtained:
[1] = molecular target: T1, Calpain-2 catalytic subunit (Sus scrofa, UniProt P43367); assay: m-calpain protease blockers, concentration series – biochemical, fluorogenic peptide substrate, dose response (AID 1420); format: functional
T1 sequence (P43367 whole entry): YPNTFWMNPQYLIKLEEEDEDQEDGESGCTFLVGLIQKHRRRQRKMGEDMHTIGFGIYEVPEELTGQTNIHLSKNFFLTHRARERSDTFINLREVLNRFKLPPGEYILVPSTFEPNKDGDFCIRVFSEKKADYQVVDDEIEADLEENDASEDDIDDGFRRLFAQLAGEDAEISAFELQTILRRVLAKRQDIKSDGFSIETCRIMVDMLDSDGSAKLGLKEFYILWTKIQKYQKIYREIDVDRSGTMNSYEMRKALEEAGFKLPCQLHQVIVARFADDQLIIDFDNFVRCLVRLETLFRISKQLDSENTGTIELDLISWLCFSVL

Cytochrome P450 2C9 [2] = molecular target: T2, Cytochrome P450 2C9 (Homo sapiens, UniProt P11712)
T2 sequence (P11712 whole entry): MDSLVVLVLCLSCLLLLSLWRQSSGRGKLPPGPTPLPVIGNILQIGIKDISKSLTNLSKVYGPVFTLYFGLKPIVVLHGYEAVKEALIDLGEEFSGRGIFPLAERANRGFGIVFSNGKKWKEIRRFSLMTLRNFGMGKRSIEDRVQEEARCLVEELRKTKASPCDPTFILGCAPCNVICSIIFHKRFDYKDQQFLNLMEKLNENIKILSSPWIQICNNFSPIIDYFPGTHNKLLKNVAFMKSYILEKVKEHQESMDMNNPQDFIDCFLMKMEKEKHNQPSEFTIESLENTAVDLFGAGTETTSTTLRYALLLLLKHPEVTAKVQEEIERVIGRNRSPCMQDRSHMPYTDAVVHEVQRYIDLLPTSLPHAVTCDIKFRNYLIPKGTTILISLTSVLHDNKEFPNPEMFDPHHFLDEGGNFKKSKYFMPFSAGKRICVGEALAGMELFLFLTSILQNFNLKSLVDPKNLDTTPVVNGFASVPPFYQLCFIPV

[3] = NIH-3T3 fibroblast cytotoxicity, dose response, cytotoxicity control, cell-based, fluorescence, Alamar Blue, secondary assay (AID 2327); format: functional;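 further: NIH-3T3 mouse fibroblasts cultured with fluconazole at 8 µg/mL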
[4] = fluconazole-exposed Candida albicans growth modulators – fluorescence, retest, confirmation (AID 2467); format: functional, cell-based
Cytochrome P450 2D6 = Cytochrome P450 2D6 (Homo sapiens, UniProt P10635);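 further: CYP2D6 member of a cytochrome P450 panel assay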
Chain of Cytochrome P450 2D6 (P10635 whole entry): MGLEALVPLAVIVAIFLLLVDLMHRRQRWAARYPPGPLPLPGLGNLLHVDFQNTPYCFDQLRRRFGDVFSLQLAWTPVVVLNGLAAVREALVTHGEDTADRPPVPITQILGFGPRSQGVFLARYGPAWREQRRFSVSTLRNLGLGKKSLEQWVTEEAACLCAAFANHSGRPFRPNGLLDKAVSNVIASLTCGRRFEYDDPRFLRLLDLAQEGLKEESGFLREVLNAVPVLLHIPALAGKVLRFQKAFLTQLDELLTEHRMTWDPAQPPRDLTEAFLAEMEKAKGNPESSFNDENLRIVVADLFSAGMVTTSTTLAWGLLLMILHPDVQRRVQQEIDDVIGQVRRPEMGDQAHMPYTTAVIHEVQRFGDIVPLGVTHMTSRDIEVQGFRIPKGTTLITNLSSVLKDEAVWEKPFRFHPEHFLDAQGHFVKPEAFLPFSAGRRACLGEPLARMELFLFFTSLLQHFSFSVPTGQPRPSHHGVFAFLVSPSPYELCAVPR

[5] = molecular target: T3, Polyadenylate-binding protein 1 (Homo sapiens, UniProt P11940); assay: MLLE binding blockers, Cy5 peptide tracer – biochemical, fluorescence polarization, Cy5-PAM2 peptide, secondary, miRNA deadenylation inhibitor project, dose response (AID 602260); format: functional; conditions: read-out: IC50_Mean
T3 sequence (P11940 whole entry, the tested form may be a part): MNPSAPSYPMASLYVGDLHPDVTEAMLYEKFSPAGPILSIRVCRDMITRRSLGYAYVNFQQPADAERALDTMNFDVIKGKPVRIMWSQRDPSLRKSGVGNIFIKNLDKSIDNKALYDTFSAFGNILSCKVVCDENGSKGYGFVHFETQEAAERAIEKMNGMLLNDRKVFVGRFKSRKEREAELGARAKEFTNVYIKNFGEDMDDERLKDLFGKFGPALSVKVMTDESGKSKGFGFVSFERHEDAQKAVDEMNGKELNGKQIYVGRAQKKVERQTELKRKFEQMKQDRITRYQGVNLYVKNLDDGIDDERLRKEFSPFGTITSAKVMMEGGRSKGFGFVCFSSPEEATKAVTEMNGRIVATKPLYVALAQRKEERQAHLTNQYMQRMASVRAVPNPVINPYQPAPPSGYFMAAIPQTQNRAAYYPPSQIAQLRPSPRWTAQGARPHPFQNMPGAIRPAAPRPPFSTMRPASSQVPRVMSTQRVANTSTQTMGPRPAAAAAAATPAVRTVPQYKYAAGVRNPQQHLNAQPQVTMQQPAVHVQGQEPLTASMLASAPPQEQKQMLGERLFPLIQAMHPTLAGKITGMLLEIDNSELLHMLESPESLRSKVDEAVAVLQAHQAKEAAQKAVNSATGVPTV

[6] = molecular target: T3, Polyadenylate-binding protein 1; assay: MLLE domain peptide-binding blockers, IC50 – biochemical, fluorescence polarization, FITC-PAM2 peptide, dose response (AID 602259); format: functional; conditions: read-out: IC50_Mean
Cytochrome P450 2C19 = Cytochrome P450 2C19 (Homo sapiens, UniProt P33261); assay: Cytochrome panel assay with activity outcomes. Panel member name: p450-cyp2c19 Compounds with AC50 equal or less than 10 uM are considered active; format: functional
Chain of Cytochrome P450 2C19 (P33261 whole entry): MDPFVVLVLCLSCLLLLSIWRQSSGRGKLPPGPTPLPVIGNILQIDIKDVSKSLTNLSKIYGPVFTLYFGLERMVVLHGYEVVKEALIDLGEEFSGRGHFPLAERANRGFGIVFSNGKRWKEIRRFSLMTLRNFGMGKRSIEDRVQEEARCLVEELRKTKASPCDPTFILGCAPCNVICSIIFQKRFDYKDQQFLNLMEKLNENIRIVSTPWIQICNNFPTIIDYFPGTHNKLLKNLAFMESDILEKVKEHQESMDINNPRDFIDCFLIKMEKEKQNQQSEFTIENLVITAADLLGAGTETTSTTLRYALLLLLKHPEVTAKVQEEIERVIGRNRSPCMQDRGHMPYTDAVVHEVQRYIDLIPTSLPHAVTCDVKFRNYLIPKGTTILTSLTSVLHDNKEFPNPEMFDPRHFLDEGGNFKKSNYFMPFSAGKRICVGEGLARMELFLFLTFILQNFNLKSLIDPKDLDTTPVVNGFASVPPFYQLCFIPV

Cytochrome P450 1A2 = molecular target: T4, Cytochrome P450 1A2 (Homo sapiens, UniProt P05177);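 further: PubChem cytochrome P450 panel assay, CYP1A2 panel member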
T4 sequence (P05177 whole entry): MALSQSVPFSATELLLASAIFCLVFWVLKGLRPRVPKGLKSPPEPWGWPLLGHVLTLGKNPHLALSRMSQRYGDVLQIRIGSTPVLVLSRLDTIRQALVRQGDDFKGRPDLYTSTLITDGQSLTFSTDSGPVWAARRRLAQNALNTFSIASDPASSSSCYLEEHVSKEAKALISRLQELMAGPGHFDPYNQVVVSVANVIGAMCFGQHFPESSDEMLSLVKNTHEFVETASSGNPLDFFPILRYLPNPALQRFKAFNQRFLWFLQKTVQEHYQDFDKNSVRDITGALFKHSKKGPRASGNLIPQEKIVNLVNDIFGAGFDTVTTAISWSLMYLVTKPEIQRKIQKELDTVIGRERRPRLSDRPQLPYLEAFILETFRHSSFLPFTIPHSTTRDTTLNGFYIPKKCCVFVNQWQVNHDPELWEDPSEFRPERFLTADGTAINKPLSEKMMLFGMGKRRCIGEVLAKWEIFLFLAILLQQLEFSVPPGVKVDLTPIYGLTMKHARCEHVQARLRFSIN

[7] = molecular target: T5, Replicative DNA helicase DnaB (Mycobacterium tuberculosis, UniProt P9WMR3); assay: DnaB intein splicing inhibitors, dose response, biochemical, cell-free fluorescence (AID 449749); format: functional
T5 sequence (P9WMR3 whole entry): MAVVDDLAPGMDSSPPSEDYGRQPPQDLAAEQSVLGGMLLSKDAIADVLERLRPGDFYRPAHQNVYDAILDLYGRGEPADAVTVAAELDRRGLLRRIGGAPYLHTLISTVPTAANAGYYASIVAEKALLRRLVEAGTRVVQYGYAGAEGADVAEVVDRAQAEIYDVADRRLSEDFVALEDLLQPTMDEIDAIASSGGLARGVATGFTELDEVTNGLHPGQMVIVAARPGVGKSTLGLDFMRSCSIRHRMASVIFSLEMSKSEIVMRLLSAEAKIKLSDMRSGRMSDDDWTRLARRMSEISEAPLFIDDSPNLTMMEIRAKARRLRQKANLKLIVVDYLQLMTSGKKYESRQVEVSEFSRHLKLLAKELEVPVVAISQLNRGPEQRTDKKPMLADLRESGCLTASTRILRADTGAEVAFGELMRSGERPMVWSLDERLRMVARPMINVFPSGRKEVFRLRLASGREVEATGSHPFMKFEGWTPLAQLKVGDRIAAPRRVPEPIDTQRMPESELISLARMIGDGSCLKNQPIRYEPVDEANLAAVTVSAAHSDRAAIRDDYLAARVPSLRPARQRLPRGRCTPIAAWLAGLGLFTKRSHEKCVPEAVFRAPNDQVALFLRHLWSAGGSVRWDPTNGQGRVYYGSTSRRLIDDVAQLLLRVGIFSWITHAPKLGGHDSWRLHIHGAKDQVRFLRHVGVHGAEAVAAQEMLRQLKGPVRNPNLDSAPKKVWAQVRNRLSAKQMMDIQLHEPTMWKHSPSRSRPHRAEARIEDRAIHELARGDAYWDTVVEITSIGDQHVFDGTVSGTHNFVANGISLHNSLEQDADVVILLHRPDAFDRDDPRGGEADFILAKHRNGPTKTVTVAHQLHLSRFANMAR

Protein RecA = molecular target: T6, Protein RecA (Mycobacterium tuberculosis, UniProt P9WHJ3); assay: Fluorescence Cell-Free Homogeneous Dose Retest to Identify Inhibitors of RecA-Intein Splicing Activity. [Related pubchem assays (depositor defined):AID2097, AID2223, AID489010, AID492950]; format: functional
T6 sequence (P9WHJ3 whole entry): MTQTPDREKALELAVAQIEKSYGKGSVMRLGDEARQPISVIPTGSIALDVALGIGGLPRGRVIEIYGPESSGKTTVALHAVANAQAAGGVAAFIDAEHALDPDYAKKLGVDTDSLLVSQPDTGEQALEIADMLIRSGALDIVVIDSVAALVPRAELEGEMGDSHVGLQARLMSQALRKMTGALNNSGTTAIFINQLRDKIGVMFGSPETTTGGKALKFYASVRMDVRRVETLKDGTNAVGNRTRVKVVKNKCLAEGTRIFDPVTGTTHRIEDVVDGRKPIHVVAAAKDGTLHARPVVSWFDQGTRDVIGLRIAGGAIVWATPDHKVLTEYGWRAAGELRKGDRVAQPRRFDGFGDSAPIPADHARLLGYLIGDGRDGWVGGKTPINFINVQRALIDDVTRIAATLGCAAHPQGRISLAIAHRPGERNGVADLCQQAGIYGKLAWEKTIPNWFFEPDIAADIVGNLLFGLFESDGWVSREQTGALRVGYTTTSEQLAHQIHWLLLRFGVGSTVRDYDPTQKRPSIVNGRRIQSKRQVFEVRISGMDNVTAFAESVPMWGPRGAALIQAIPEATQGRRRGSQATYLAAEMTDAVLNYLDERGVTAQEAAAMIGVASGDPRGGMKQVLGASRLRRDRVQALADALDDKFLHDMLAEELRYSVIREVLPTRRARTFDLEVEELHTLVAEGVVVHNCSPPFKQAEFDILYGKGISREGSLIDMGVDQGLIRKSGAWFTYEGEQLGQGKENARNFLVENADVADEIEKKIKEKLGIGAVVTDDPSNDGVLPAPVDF

Cytochrome P450 2C9 [8] = molecular target: T2, Cytochrome P450 2C9; remark: listed apart in the source
Cytochrome P450 3A4 = Cytochrome P450 3A4 (Homo sapiens, UniProt P08684);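 further: CYP3A4 tested as one member of a cytochrome P450 panel screen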
Chain of Cytochrome P450 3A4 (P08684 whole entry): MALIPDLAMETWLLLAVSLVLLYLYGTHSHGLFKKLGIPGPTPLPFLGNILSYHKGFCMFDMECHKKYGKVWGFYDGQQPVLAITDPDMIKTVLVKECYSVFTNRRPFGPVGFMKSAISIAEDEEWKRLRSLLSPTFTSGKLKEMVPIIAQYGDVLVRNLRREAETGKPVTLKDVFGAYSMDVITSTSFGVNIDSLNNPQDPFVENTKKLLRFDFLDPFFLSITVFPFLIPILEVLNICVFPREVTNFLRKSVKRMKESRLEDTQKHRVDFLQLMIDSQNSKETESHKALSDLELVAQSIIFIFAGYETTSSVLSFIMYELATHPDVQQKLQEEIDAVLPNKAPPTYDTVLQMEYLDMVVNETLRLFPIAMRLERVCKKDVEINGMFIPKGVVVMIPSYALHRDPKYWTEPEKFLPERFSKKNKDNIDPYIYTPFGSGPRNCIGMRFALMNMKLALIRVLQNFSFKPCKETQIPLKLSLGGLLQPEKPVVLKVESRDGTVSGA

[9] = P. falciparum Dd2 growth inhibitors, dose response, SYBR Green, cherry-picked samples (AID 1159567); format: functional, cell-based

N=C(NNC(=O)c1ccccc1)c1cc2ccccc2oc1=O
IC50 [1]: 48.5 µM (not active)

CC(C)Cn1c(N)c(C(=O)COC(=O)c2cccc(F)c2)c(=O)n(C)c1=O
IC50 [1]: 16.2 µM (not active)

CCOc1cc(C)ccc1OCc1nnc(SCC(=O)c2cccc([N+](=O)[O-])c2)n1CC
AC50 (Cytochrome P450 2C9 [2]): inconclusive

Cc1c(C(=O)N2CCC(C)CC2)sc2ncnc(N3CCN(c4ccccc4)CC3)c12
IC50 [1]: 19 µM (not active)

O=C(Cc1ccccc1Cl)NCCCn1ccnc1
IC50 [1]: > 50 µM (not active)

COc1ccc(Cl)cc1NC(=O)NCCCl
AC50 (Cytochrome P450 2C9 [2]): inconclusive

O=C(Oc1ccc(-c2ccccc2)cc1)N1CCCCC1
IC50 [1]: 1.11 µM (not active)

CCOc1ccc(CCNC(=O)CN2CCN(Cc3ccc(F)cc3)C2=O)cc1OCC
IC50 [1]: > 50 µM (not active)

Cc1ccc(SCC(=O)c2sc(-c3ccccc3)nc2C)cc1
IC50 [1]: 6.06 µM (not active)

COC(=O)c1[nH]c2cc(C)ccc2c1NC(=O)CN1CCc2cc(OC)c(OC)cc2C1
EC50 [3]: > 150 µM (inactive)
EC50 [4]: > 38 µM (not active)

COc1ccc2c(Cc3c4ccccc4cc4ccccc34)cncc2c1O
AC50 (Cytochrome P450 2D6): 3.16 µM (inconclusive)
AC50 (Cytochrome P450 2C9 [2]): inconclusive

Cc1ccc(N2C(=O)C3C4C=CC(CN=C(S)Nc5cccc(Cl)c5)(O4)C3C2=O)cc1 (centres undefined)
IC50 [5]: > 66 µM (inactive)
IC50 [6]: > 66 µM (inactive)

CCOc1ccc(NC(=O)NNC(=O)c2cc3ccccc3cc2O)cc1
EC50 [3]: > 150 µM (inactive)

O=C(Nc1ccccn1)c1ccco1
AC50 (Cytochrome P450 2C19): inconclusive
AC50 (Cytochrome P450 2C9 [2]): inconclusive

CCCCOc1cccc(C(=O)NN=C(S)NC2CCCCC2)c1
EC50 [3]: 37.1 µM (active)

CC1Cc2ccccc2N1C(=O)CCN1C(=O)C2C3C=CC(C3)C2C1=O (centres undefined)
AC50 (Cytochrome P450 2C19; read-out: AC50): 10 µM (inconclusive)
AC50 (Cytochrome P450 1A2): 10 µM (inconclusive)
AC50 (Cytochrome P450 2C9 [2]): inconclusive

Cn1nc(C(C)(C)C)cc1C(=O)Sc1cccc(Br)c1
AC50 [7]: 16.4 µM (active)
EC50 (Protein RecA): 37.1 µM (inconclusive)
IC50 [5]: > 66 µM (inactive)
IC50 [6]: > 66 µM (inactive)

O=C1c2ccccc2C(=O)N1CC1=CCS(=O)(=O)C1
IC50 [5]: > 66 µM (inactive)
IC50 [6]: > 66 µM (inactive)

COc1ccc(CNc2ccc3c[nH]nc3c2)c(OC)c1OC
AC50 [7]: 2.69 µM (active)
EC50 (Protein RecA): 0.797 µM (active)

Cc1ccc(C(=O)NC(=S)Nc2ccc(N3CCN(C(=O)c4ccco4)CC3)cc2)cc1
IC50 [5]: > 66 µM (inactive)
IC50 [6]: > 66 µM (inactive)

Cn1c(C(=O)NCC2CCCO2)cc2c(=O)n3ccccc3nc21 (centres undefined)
AC50 (Cytochrome P450 2C19; read-out: AC50): 17.8 µM (inconclusive)
AC50 (Cytochrome P450 2D6): 3.55 µM (inconclusive)
AC50 (Cytochrome P450 2C9 [8]): 25.1 µM (inconclusive)

Cc1cc(SCC(=O)c2cccs2)nc2c(C)cccc12
AC50 (Cytochrome P450 2C9 [2]): inconclusive

COc1ccc(N2CCN(C(c3ccccc3)c3nnnn3Cc3ccc(F)cc3)CC2)cc1 (centres undefined)
IC50 [1]: 5 µM (not active)

CSc1nn2c(C(F)(F)F)cc(C(F)(F)F)nc2c1C(=O)O
EC50 [3]: > 160 µM (inactive)

C=COC(=O)CSc1snc(SCC(=O)OC)c1C#N
AC50 [7]: > 380 µM (inactive)
EC50 (Protein RecA): 40.1 µM (active)

NN=C(S)Nc1cccc(Cl)c1
EC50 [3]: > 150 µM (inconclusive)
EC50 [4]: > 38 µM (not active)

CCCCNS(=O)(=O)c1ccc(OC)c(Cl)c1Cl
AC50 (Cytochrome P450 1A2): 4.47 µM (inconclusive)
AC50 (Cytochrome P450 2C9 [2]): inconclusive

O=C1CC/[N+](=C\c2ccc(Cl)c(Cl)c2)[N-]1
AC50 [7]: 17.8 µM (active)
EC50 (Protein RecA): 8.98 µM (active)

CC1CCCN(C2=C(Cl)C(=O)N(c3cccc(Cl)c3)C2=O)C1 (centres undefined)
AC50 [7]: > 380 µM (inactive)
EC50 (Protein RecA): 2.86 µM (active)

COc1ccc(S(=O)(=O)N(C(=O)C(C)C)c2ccc3oc(=O)sc3c2)cc1
IC50 [5]: > 66 µM (inactive)
IC50 [6]: > 66 µM (inactive)

CC(C)CNCC(=O)N1c2ccccc2Sc2ccccc21.O=C(O)C(=O)O
AC50 (Cytochrome P450 2D6): 28.2 µM (inconclusive)
AC50 (Cytochrome P450 1A2): 15.8 µM (inconclusive)
AC50 (Cytochrome P450 2C9 [2]): inconclusive

CCc1ccc(CNC(=O)CCC(=O)N2Cc3cccc(OC)c3Oc3ncccc32)cc1
EC50 [3]: > 160 µM (inactive)
EC50 [4]: > 38 µM (not active)

Cc1cccc(NC(S)=NCc2cccs2)c1
IC50 [1]: > 50 µM (not active)

Cc1cc(C)c(S(=O)(=O)NNC(=O)C2CCN(Cc3ccccc3)CC2)c(C)c1
AC50 (Cytochrome P450 3A4): 22.4 µM (inconclusive)
AC50 (Cytochrome P450 2C9 [2]): inconclusive

Oc1ccc(Br)cc1/C=N/c1cccn2cc(-c3ccccc3)nc12
IC50 [5]: > 66 µM (inactive)
IC50 [6]: > 66 µM (inactive)

CC(=O)N1CC[C@@H]2[C@@H](CO)Nc3ccc(C#Cc4ccccc4F)cc3[C@@H]21
AC50 [9]: 10.7 µM (active)

C/C=C/c1ccccc1[C@@H]1[C@@H](CO)N(S(=O)(=O)c2cccc(F)c2)[C@H]1C#N
AC50 [9]: 6.96 µM (active)

COc1ccc2c3c([nH]c2c1)[C@@H](CO)N(Cc1ccccc1)CC31CCN(C(=O)c2cccnc2)CC1
AC50 [9]: 4.55 µM (active)

COc1ccc2c3c([nH]c2c1)[C@H](CO)N(Cc1ccccc1F)CC31CN(C(=O)C2CCC2)C1
AC50 [9]: 7.75 µM (active)
